Experimental data published in patent publication US20130072506A1, “6,8-DISUBSTITUTED PURINE COMPOSITIONS” (priority 2011, published 2013).

Assays:
SKH-1 hairless mice [1] = assay: Hairless mouse assay: skin moisture content; type: in vivo; conditions: course over 3 weeks of topical treatment
Source text: Evaluation of cutaneous effects of new topical compounds in the hirless mouse assay. The purpose of this study was to evaluate new topical compounds for their safety and efficacy as topical skin anti-aging treatments. The hairless mouse model is a well established model for studying the treatments of photoaging. […] The present study was used to investigate a new class of anti-aging compounds in comparison to classical ones. […] Topical compounds and vehicle controls were be applied daily (Monday-Friday) for 3 weeks to the dorsal skin of hairless mice. At baseline (prior to the 1st treatment), and weekly, the dorsal skin was measured for: transepidermal water loss (TEWL); skin moisture content; and skin elasticity.
(§1) Experimental Design. 48 female SKH-1 hairless mice (5 weeks old, 20-25 grams, Charles River Laboratories, Wilmington, Mass.) are individually housed in filter-top cages, and acclimated for 5-7 days after delivery. The mice are divided into 8 treatment groups (n=6), including two different control groups (untreated control, vehicle control) and a therapeutic control (tretinoin 0.05% Renova™ cream). Cage cards are marked to indicate treatment groups 1-8. Water and mouse chow are provided ad libitum.
Skin Moisture Content & Elasticity. The measurements of skin moisture content and skin elasticity are important noninvasive methods used to characterize the effects of moisturizers and anti-wrinkle effects on skin. A DermaLab™ combination instrument were used to measure the skin moisture content and elasticity of the target skin sites at baseline and at weekly intervals. This instrument is equipped with dual probes which are placed on the skin surface and a quantitative measurement taken of the respective parameters and the measurements recorded on an integrated computer. Mean measurements was determined for each treatment group over time, and comparative statistics used to evaluate product effectiveness.
(§2) Topical Treatments. Beginning on Treatment Day 1, test products are applied topically each morning (Monday through Friday) after erythema evaluations for 3 weeks. Using a positive displacement pipette, 20 mg of each agent is applied to a 2 cm×2 cm area of the center midline of the back. The material was spread across the treatment area with the pipette tip.

SKH-1 hairless mice [2] = assay: Hairless mouse assay: erythema scoring (skin irritation); type: in vivo; parameters: key: 0: No response; 1: Very slight redness; 2: Slight redness; 3: Moderate redness/irritation; 4: Severe redness/irritation; 5: Very severe redness/irritation; 6: Necrosis; conditions: topical, daily, 1 to 3 weeks
Source text: Evaluation of cutaneous effects of new topical compounds in the hirless mouse assay. The purpose of this study was to evaluate new topical compounds for their safety and efficacy as topical skin anti-aging treatments. The hairless mouse model is a well established model for studying the treatments of photoaging. This model has been used to study mechanisms, define effective treatment regimens and assess safety for retinoids and other anti-aging products. The present study was used to investigate a new class of anti-aging compounds in comparison to classical ones. Recent clinical studies have shown that this class of compounds improve the appearance of photodamaged skin and decrease transepidermal water loss (TEWL) without causing skin irritation. This study investigated the mechanisms of how these compounds affect the skin aging process and help to identify new compounds which are safe and effective for preventing and improving the clinical features of photoaged skin. Topical compounds and vehicle controls were be applied daily (Monday-Friday) for 3 weeks to the dorsal skin of hairless mice. At baseline (prior to the 1st treatment), and weekly, the dorsal skin was measured for: transepidermal water loss (TEWL); skin moisture content; and skin elasticity.
Experimental Design. […]
Technical staff recorded erythema scores for all animals each morning. […]

SKH-1 hairless mice [3] = assay: Hairless mouse assay: epidermal bromodeoxyuridine (BrdU) staining; type: in vivo; conditions: after 3 weeks of topical treatment
Source text: This study determined the effect of topical compound formulations on epidermal cell proliferation using bromodeoxyuridine as an immunohistochemical marker of cell proliferation. Histological examination of the treated and control skin were used to determine cutaneous effects of the topical compounds. Topical tretinoin 0.05% (Renova™) was used as a therapeutic control.
as §1, §2
Bromodeoxyuridine Injection. All animal groups are injected with bromodeoxyuridine (100 mg/kg) I.P. 4 hours after the final application. Animals are sacrificed by CO2 inhalation 3 hours later followed by cervical dislocation. The test sites are excised, and 6 mm punch biopsies are obtained from each treatment site, and from untreated controls. Biopsies are placed into labeled vials containing 4% neutral buffered formalin for paraffin embedding and anti-BrdU staining.
Bromodeoxyuridine Immunohistochemical Staining. Paraffin sections are cut to a […] thickness and stained using the BrdU Immuno-histochemistry kit (X1545K from Exalpha Biologicals, Inc.) and a standard staining protocol. The slides are weakly counterstained in Mayer's hematoxylin and scored under a light microscope for the number of BrdU-positive cells per mm of epidermis for each section. The data are expressed as mean BrdU-positive cells/mm for each treatment group. Differences in BrdU labeling in the treatment groups are statistically analyzed using the Students t-test. Representative photographs are taken of the histological sections of the BrdU-positive staining cells.

SKH-1 hairless mice [4] = assay: Hairless mouse assay: skin histology and skin compartment measurements; type: in vivo; conditions: after 3 weeks of treatment
Source text: as §1, §2
Skin Histology. Skin biopsies are taken of each treatment site and untreated control skin. Biopsies are fixed in 4% neutral buffered formalin, embedded in paraffin, and stained with hematoxylin and eosin. The stained skin sections are examined to determine the effects of the treatment on epidermal, dermal, and stratum corneum histology. Biopsies are also microscopically examined for inflammatory cells.
Skin Compartment Measurements. The H&E stained biopsy slides were imaged using a trinocular Olympus BH-2 microscope fitted with a Microfire 2.1×3 Digital Camera. 100× images were digitized and stored on CD using MS Pictureframe and Microfire Software. All compartment images were measured using a calibrated micrometer. An average of three measurements of each compartment for two slide images per biopsy was obtained and tabulated, and means and standard deviations were calculated.

[5] = clinical experience / previous clinical studies; cited from earlier work

With `CC1=C(/C=C/C(C)=C/C=C/C(C)=C/C(=O)O)C(C)(C)CCC1` [tretinoin] the “skin moisture content (skin conductance)” value (SKH-1 hairless mice [1]) was “significant decrease”, the “Erythema score (Grade)” value (SKH-1 hairless mice [2]) was 3 and the “epidermal BrdU staining” value (SKH-1 hairless mice [3]) was “no epidermal BrdU staining”. For the same compound, the skin compartment thickness (SKH-1 hairless mice [4]; H&E stained biopsies) was “increased both epidermal and dermal thickness”, the “histological evaluation of skin biopsies” value (SKH-1 hairless mice [4]) was “marked increased thickness of the epidermis and inflammatory changes in the dermis” and the TEWL [5] was “increase in TEWL”.
